For the assay, the system named is L. monocytogenes. In words: Microbial kill on L. monocytogenes inoculated lettuce in pouches. Conditions: 5 days post inoculation and packaging. The format is cell-based. An excerpt: To verify its efficacy against pathogenic bacteria, pouch samples were sent to Institute of Food Safety and Health (IFSH) for a microbial study where they were filled with 30 grams of lettuce that was inoculated with the L. monocytogenes with an initial count of 7.6E+06 CFU/g. The pouches were the same structure and size as Produce Packaging Example 1. The pouches were exposed to 3 s or 5 s of 254 nm UV radiation and analyzed for the microbial kill at 1 and 5 days. […] The pouches containing the ClO2 additive were either pre humidified to 80% RH or left unconditioned. The moisture required for the chlorine dioxide production in the dry samples came from the lettuce. It was observed that chlorine dioxide was able to attain 4-5 log kill in 5 days post inoculation and packaging.

`[O][Cl+][O-]` [chlorine dioxide]: the “log kill of L. monocytogenes” value is listed as 4-5 log.
